Here are results for two compounds from patent publication US20110257170A1, “4-MORPHOLINO-PYRIDO[3,2-D]PYRIMIDINES” (MERCK SERONO SA, priority 2008, published 2011).

Each structure is given as a SMILES string.

Series [1] concerns T1, Human recombinant GST-PI3K.
T1 construct: fused on or other part: GST tag
Put plainly: PI3K lipid phosphorylation scintillation proximity assay (neomycin-coated SPA beads). It counts as biochemical. The settings on record: 120 min at room temperature, isoform not stated. From the text: The efficacy of compounds of the invention in inhibiting the PI3K induced-lipid phosphorylation may be tested in the following binding assay. The assay combines the scintillation proximity assay technology (SPA, Amersham) with the capacity of neomycin (a polycationic antibiotic) to bind phospholipids with high affinity and specificity. The Scintillation Proximity Assay is based on the properties of weakly emitting isotopes (such as ^3H, ^125I, ^33P). Coating SPA beads with neomycin allows the detection of phosphorylated lipid substrates after incubation with recombinant PI3K and radioactive ATP in the same well, by capturing the radioactive phospholipids to the SPA beads through their specific binding to neomycin. […] After precipitation of the neomycin-coated PVT SPA beads for 5 minutes at 1500×g, radioactive Ptdlns(3)P is quantified by scintillation counting in a Wallac MicroBeta™ plate counter. […]

In the case of `COC(=O)c1cc(Cl)c2nc(Cl)nc(N3CCOCC3)c2n1` [Example E-1, Methyl 2,8-dichloro-4-morpholin-4-yl-pyrido[3,2-d]pyrimidine-6-carboxylate], the melting point is 212 to 213 °C (dec.).

On to `Cc1ccc2nc(Cl)nc(N3CCOCC3)c2n1` [Example E-34, 2-Chloro-6-methyl-4-morpholin-4-ylpyrido[3,2-d]pyrimidine], for which, in series [1], the IC50 is 8.61 µM.
